Assay results from patent US20250228971A1, “DESIGN AND CONSTRUCTION OF EVOLUTIONARY-GUIDED "SELECTION GENE DRIVE" THERAPY” (THE PENN STATE RESEARCH FOUNDATION, priority 2022, published 2025).

Columns and labels:
[1] = system: EGFR+ BaF3 tumors expressing S2 vCyD; test: In vivo cytosine deaminase activity; set-up: species or system mice; conditions: daily dosing of 5-FC
Description: In vivo cytosine deaminase activity. Mice were randomized into three arms (five mice/arm).
Tumors were allowed to grow for 12 days, and then once-daily treatment was initiated. The wild-type arm and one of the S2 vCyD arms received 800 uL 500 mg/kg 5-FC via ip injection. The second S2 vCyD arm received 800 uL vehicle control (sterile PBS). Tumor volumes were measured every other day.

[2] = system: mixed wild-type and S2 vCyD BaF3 cells; test: Enzyme-prodrug bystander assay (vCyD, BaF3); type: cell-based, murine; conditions: 1 mM 5-FC
Description: Enzyme-prodrug bystander assays (vCyD and vNfsA). To evaluate the S2 vCyD system, populations of wild-type and cytosine deaminase-expressing BaF3 cells were mixed at defined ratios and seeded at 30k/well in 96-well plates in triplicate, and 1 mM 5-FC was added. Cell viability was measured after 48 hours using CellTiter-Glo and normalized to untreated controls. Similarly, wild-type and S1vEGFRosi-S2vCyD PC9 cells were mixed, seeded at 20k/well, and treated with 1 mM 5-FC.

[3] = system: RET fusion driven cancer cell line; test: Switch 2 sensitivity of cancer cell lines (RET line); type: cell-based
Description: (§1) Personalize switch 2 designs for different NSCLC tumors. Quantitative models (FIG. 5) have identified the extent of switch 2 bystander driven killing as a key factor in gene drive success. This effect is larger in from spatial systems (2D/3D) (FIG. 10). Pharmacologically, the toxin responsible for the bystander effect must be diffusible and have a half-life on the order of hours to be evolutionarily useful. Prototypes used here meet these transport constraints, but some cancer cell types display differential biological sensitivity to distinct switch 2 metabolites. […] Cell and organoid type specificity in Switch 2 designs is assessed in a larger number of genetically defined NSCLC cell line (FIGS. 8 and 10).

PC9 cell line = test: Switch 2 sensitivity of cancer cell lines (PC9); type: cell-based
Description: as §1

[4] = system: EGFR L858R transformed cell population; test: Prototype dual-switch selection drive in vitro (FIG. 3); type: cell-based
Description: The dual-switch drive engineers the evolutionary dynamics of an EGFR L858R transformed cell population in vitro. […] Rimiducid is removed to inactivate switch 1 driven drug resistance in the gene drive cell.

S1 vEGFRerl BaF3 cells = test: BaF3 dimerizer-dependence assay (growth rate); type: cell-based, murine; conditions: absence of IL-3; range of dimerizer concentrations
Description: BaF3 dimerizer-dependence assays. S1 vEGFRerl BaF3s were seeded in 12-well plates at 100k/well with dimerizer (AP20187, Takara) in triplicate. Cell counts were measured on a hemocytometer every day for four days, and an exponential curve was fit to the data to estimate growth rates.

S1 vEGFRerl BaF3 tumors = test: Engineered Switch 1 BaF3 in vivo model (dimerizer-dependence); set-up: species or system mice; conditions: once-daily dimerizer, range of doses, 12 days
Description: Engineered Switch 1 BaF3 in vivo models. All animal experiments were conducted under a protocol approved by the Institutional Animal Care and Use Committee. In the dimerizer-dependence in vivo experiment, S1 vEGFRerl BaF3 cells were subcutaneously grafted on both flanks (3.5M/flank) of NOD-SCID mice (Jackson Labs). Mice were randomized into four arms (0, 0.1, 1, and 10 mg/kg dimerizer) of 3 mice each. Mice received 100 uL dimerizer or vehicle control (2% Tween in PBS) once daily via intraperitoneal injection. Tumor volumes were measured with calipers following 12 days of treatment.

[5] = system: S1 vEGFRerl EGFR+ NSCLC PC9 cells; test: Erlotinib dose response in Switch 1 PC9 cells; type: cell-based, human; conditions: erlotinib with or without dimerizer
Description: Drug dose response assays. In general, all 1C50 measurements were conducted similarly. Cells were seeded in 96-well plates at 3k/well triplicate. Adherent cells were given 24 hours before the addition of drug. Cell viability was measured three days after drug treatment using CellTiter-Glo 2.0 (Promega) and luminescence values were normalized to vehicle control conditions.

[6] = system: phospho-EGFR and phospho-ERK; test: Immunoblotting of EGFR/MAPK signaling in PC9 cells; type: cell-based, human; conditions: erlotinib-treated S1 vEGFRerl PC9 cells, dimerizer added
[7] = system: mixed-population PC9 tumors; test: Gene drive in PC9 tumors in vivo
Description: To test this, mixtures of 50% gene drive and 50% resistant PC9 cells were generated to reflect a possible population structure at the beginning of Switch 2. These pooled populations were grafted in mice. The mice were then treated with Switch 2 drugs (osimertinib and 5-FC) with or without concurrent Switch 1 engagement (dimerizer).
Finally, these findings were performed in a full-term gene drive experiment in vivo.

[8] = system: mixed-population EGFR+ BaF3 tumors; test: Gene drive in BaF3 tumors in vivo; set-up: species or system mice; conditions: tumors lacking gene drive cells, daily erlotinib
[9] = system: Early passage wild-type PC9 cells; test: Early passage wild-type PC9 culture in EGFR inhibitors; type: cell-based; conditions: even at high concentrations
[10] = system: PC9 cells transduced with EGFR variant library; type: cell-based, human
CRISPRko PC9 population = type: cell-based, human
[11] = system: pooled sensitive, resistant and immune gene drive PC9 cells; test: Immune gene drive growth tracking in PC9 mixed populations; type: cell-based, human; conditions: lacking gene drive cells
[12] = system: RET+ thyroid carcinoma TPC1 cells; test: RET gene drive growth tracking in TPC1 mixed populations; type: cell-based, human; conditions: absence of gene drive cells, pralsetinib
Description: Gene drive growth tracking. Populations of sensitive, mCherry+ resistant, and GFP+ gene drive cells were mixed together. Except where otherwise noted, mixed populations consisted of 0.5% resistant cells and 5% gene drive cells. Cells were seeded in 24-well plates (1.5M/well for BaF3s and 50k/well for adherent cells) in triplicate, with the exception of the gene-drive titer experiment where 3M/well BaF3s were seeded in 6-well plates in order to maintain sufficient cell numbers for low spike-in conditions. […] For Switch 2 conditions, 500 μM 5-FC replaced dimerizer in the above formulations.
Cell counts were measured every other day. For counts of adherent cells, wells were washed with PBS, trypsinized, and then resuspended in RPMI. Cell suspensions were transferred to microcentrifuge tubes, vortexed, and a small aliquot (6%) was analyzed by flow cytometry (BD Accuri) to get subpopulation cell counts. The remaining cells were spun down (1k g for 5 min), the supernatant was aspirated, and the cell pellet was resuspended in fresh RPMI and seeded onto a new plate. Fresh drug was added immediately. In general, Switch 2 treatment began when the gene drive population exceeded 60% of the day 0 cell counts. Cells were monitored for 2-3 weeks after apparent eradication to ensure that no remaining cells grew back.

[13] = in vivo; cited from earlier work
[14] = system: CD19+ and CD19- PC9 cells; test: Immune bystander assay (vCD19); type: cell-based, human; conditions: co-culture with primary T cells and blinatumomab
Description: Immune bystander assays (vCD19). PBMCs were sourced from Astarte and T cells were expanded using CD3/CD28 dynabeads (1:100 bead: cell ratio). For the immune bystander experiments, CD19+ and CD19-PC9 cells were seeded 1:1 in 24 wells plates at 60k/well. After 24 hours, 1 ng/mL blinatumomab was added to all wells. At the same time, freshly-thawed T cells were added at the appropriate concentration. Each target: effector ratio was conducted in triplicate. After 48 hours, the supernatant and resuspended adherent cells were pooled and analyzed according to the following staining protocol. Cells were spun down (750 g for 3 min) and resuspended in 50 uL Fc block buffer. After a 10 minute incubation, 100 uL antibody mixture (anti-CD3/FITC and anti-CD19/APC) was added. The cell suspension was incubated at 4C for 20 minutes. After three washes in PBS with 1% BSA, the cell suspension was analyzed by flow cytometry.

Nc1nc(=O)[nH]cc1F [5-FC]
tumor response [1]: rapid tumor regression
killing in mixed cultures (bystander effect) [2]: significantly higher killing than expected
sensitivity to cytosine deaminase->5-FC pair [3]: highly sensitive
sensitivity to cytosine deaminase>5-FC pair (PC9 cell line): more modestly sensitive
effect on resistant population when switch 2 is induced ([4]; 5-FC added, rimiducid removed, erlotinib maintained): kills the resistant population

CC[C@H](C(=O)N1CCCC[C@H]1C(=O)O[C@H](CCc1ccc(OC)c(OC)c1)c1cccc(OCC(=O)NCC(CNC(=O)COc2cccc([C@@H](CCc3ccc(OC)c(OC)c3)OC(=O)[C@@H]3CCCCN3C(=O)[C@@H](CC)c3cc(OC)c(OC)c(OC)c3)c2)CN(C)C)c1)c1cc(OC)c(OC)c(OC)c1 [dimerizer]
growth of S1 vEGFRerl BaF3 cells (S1 vEGFRerl BaF3 cells): Stimulated growth
tumor growth (S1 vEGFRerl BaF3 tumors): stimulated tumor growth
inducible drug resistance phenotype [5]: causes inducible drug resistance
MAPK signaling (western blot) [6]: rescues MAPK signaling
time to progression ([7]; 50% gene drive/50% resistant, osimertinib and 5-FC with temporary dimerizer vs without): exhibited a longer time to progression

C#Cc1cccc(Nc2ncnc3cc(OCCOC)c(OCCOC)cc23)c1 [erlotinib]
tumor dynamics [8]: initially regressed and then relapsed
population response [9]: initial regression followed by rapid outgrowth
effect on sensitive EGFR-L858R+ transformed cells [4]: killed

C=CC(=O)Nc1cc(Nc2nccc(-c3cn(C)c4ccccc34)n2)c(OC)cc1N(C)CCN(C)C [osimertinib]
time of treatment to osimertinib resistance [10]: 2-3 weeks
population dynamics (CRISPRko PC9 population): initial decrease in population size, followed by the outgrowth of resistance
outcome of mixed population [11]: Resistance emerged
population response [9]: initial regression followed by rapid outgrowth
tumor response ([7]; mouse, in vivo): eventually became refractory to osimertinib treatment

CO[C@]1(C(=O)N[C@@H](C)c2ccc(-n3cc(F)cn3)nc2)CC[C@H](c2nc(C)cc(Nc3cc(C)[nH]n3)n2)CC1 [pralsetinib]
outcome of mixed population [12]: selected for pre-existing G810R resistance

CC[C@H](C(=O)N1CCCC[C@H]1C(=O)O[C@H](CCc1ccc(OC)c(OC)c1)c1cccc(OCC(=O)NCCNC(=O)COc2cccc([C@@H](CCc3ccc(OC)c(OC)c3)OC(=O)[C@@H]3CCCCN3C(=O)[C@@H](CC)c3cc(OC)c(OC)c(OC)c3)c2)c1)c1cc(OC)c(OC)c(OC)c1 [rimiducid]
effect of rimiducid-induced gene drive population on pre-existing resistance ([4]; switch 1, erlotinib maintained): inhibits the growth of pre-existing resistance
clinical exposure [13]: 0.1 to 1000 nM

blinatumomab: bispecific CD3/CD19 T cell engager
effect on S2 vCD19 (antigen-positive) cells [14]: targeted by the T cells
effect on wild-type, antigen-negative cells (immune bystander activity) [14]: affected as well
